Data from PubChem BioAssay (NCI).
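Interpolation was linear, between the two tested concentrations surrounding the appropriate level; five concentrations were tested over 48 hours in 96-well plates. Here, GI50 denotes the concentration required for 50% inhibition of growth. The concentration for full growth arrest is given as TGI.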

Tests used:
Experiment in all cases: NCI-60 cell line screen, 48 h
IGROV1 ovarian = tested on: IGROV1 ovarian
SR leukemia = tested on: SR leukemia
OVCAR-5 ovarian = tested on: OVCAR-5 ovarian
HCT-15 colon = tested on: HCT-15 colon
SK-MEL-5 melanoma = tested on: SK-MEL-5 melanoma
UACC-62 melanoma = tested on: UACC-62 melanoma
U251 CNS = tested on: U251 CNS
786-0 renal = tested on: 786-0 renal
MOLT-4 leukemia = tested on: MOLT-4 leukemia
K-562 leukemia = tested on: K-562 leukemia
BT-549 breast = tested on: BT-549 breast
A549 NSCLC = tested on: A549 NSCLC
ACHN renal = tested on: ACHN renal
SNB-19 CNS = tested on: SNB-19 CNS
MDA-MB-231 breast = tested on: MDA-MB-231 breast
HL-60(TB) leukemia = tested on: HL-60(TB) leukemia
MDA-MB-468 breast = tested on: MDA-MB-468 breast
T-47D breast = tested on: T-47D breast
EKVX NSCLC = tested on: EKVX NSCLC
DU-145 prostate = tested on: DU-145 prostate
NCI-H522 lung = tested on: NCI-H522 lung
RXF 393 renal = tested on: RXF 393 renal
SF-295 CNS = tested on: SF-295 CNS
UACC-257 melanoma = tested on: UACC-257 melanoma
OVCAR-8 ovarian = tested on: OVCAR-8 ovarian
OVCAR-3 ovarian = tested on: OVCAR-3 ovarian
SW-620 colon = tested on: SW-620 colon
UO-31 renal = tested on: UO-31 renal
SF-539 CNS = tested on: SF-539 CNS
NCI-H226 lung = tested on: NCI-H226 lung
M14 melanoma = tested on: M14 melanoma
NCI-H23 lung = tested on: NCI-H23 lung
HS 578T breast = tested on: HS 578T breast
TK-10 renal = tested on: TK-10 renal
MCF7 breast = tested on: MCF7 breast
HOP-62 NSCLC = tested on: HOP-62 NSCLC
SK-MEL-28 melanoma = tested on: SK-MEL-28 melanoma
SNB-75 CNS = tested on: SNB-75 CNS
A498 renal = tested on: A498 renal
PC-3 prostate = tested on: PC-3 prostate
NCI-H460 lung = tested on: NCI-H460 lung
OVCAR-4 ovarian = tested on: OVCAR-4 ovarian
MALME-3M melanoma = tested on: MALME-3M melanoma
SF-268 CNS = tested on: SF-268 CNS
HOP-92 NSCLC = tested on: HOP-92 NSCLC
HCT-116 colon = tested on: HCT-116 colon
CCRF-CEM leukemia = tested on: CCRF-CEM leukemia
SK-OV-3 ovarian = tested on: SK-OV-3 ovarian
RPMI-8226 leukemia = tested on: RPMI-8226 leukemia
NCI/ADR-RES ovarian = tested on: NCI/ADR-RES ovarian
COLO 205 colon = tested on: COLO 205 colon
HCC-2998 colon = tested on: HCC-2998 colon
CAKI-1 renal = tested on: CAKI-1 renal
SN12C renal = tested on: SN12C renal
SK-MEL-2 melanoma = tested on: SK-MEL-2 melanoma
HT29 colon = tested on: HT29 colon

Structure (SMILES): O=C(Nc1ccc(OCC(=O)c2ccccc2)cc1)Nc1ccc(Cl)c(C(F)(F)F)c1
- GI50 (IGROV1 ovarian): 4.38 µM
- TGI (IGROV1 ovarian): > 100 µM
- GI50 (SR leukemia): 2.52 µM
- TGI (SR leukemia): > 100 µM
- GI50 (OVCAR-5 ovarian): 5.28 µM
- TGI (OVCAR-5 ovarian): > 100 µM
- GI50 (HCT-15 colon): 2.92 µM
- TGI (HCT-15 colon): > 100 µM
- GI50 (SK-MEL-5 melanoma): 2.87 µM
- TGI (SK-MEL-5 melanoma): 9.54 µM
- GI50 (UACC-62 melanoma): 2.26 µM
- TGI (UACC-62 melanoma): 6.2 µM
- GI50 (U251 CNS): 2.95 µM
- TGI (U251 CNS): 12.8 µM
- GI50 (786-0 renal): 4.12 µM
- TGI (786-0 renal): 32.5 µM
- GI50 (MOLT-4 leukemia): 2.48 µM
- TGI (MOLT-4 leukemia): > 100 µM
- GI50 (K-562 leukemia): 3.66 µM
- TGI (K-562 leukemia): > 100 µM
- GI50 (BT-549 breast): 11.5 µM
- TGI (BT-549 breast): > 100 µM
- GI50 (A549 NSCLC): 3.64 µM
- TGI (A549 NSCLC): > 100 µM
- GI50 (ACHN renal): 3.17 µM
- TGI (ACHN renal): > 100 µM
- GI50 (SNB-19 CNS): 3.16 µM
- TGI (SNB-19 CNS): > 100 µM
- GI50 (MDA-MB-231 breast): 2.87 µM
- TGI (MDA-MB-231 breast): 11.4 µM
- GI50 (HL-60(TB) leukemia): 3 µM
- TGI (HL-60(TB) leukemia): 40.2 µM
- GI50 (MDA-MB-468 breast): 2.41 µM
- TGI (MDA-MB-468 breast): 7.05 µM
- GI50 (T-47D breast): 3.13 µM
- TGI (T-47D breast): > 100 µM
- GI50 (EKVX NSCLC): 3.26 µM
- TGI (EKVX NSCLC): > 100 µM
- GI50 (DU-145 prostate): 6.81 µM
- TGI (DU-145 prostate): > 100 µM
- GI50 (NCI-H522 lung): 1.96 µM
- TGI (NCI-H522 lung): 6.15 µM
- GI50 (RXF 393 renal): 2.78 µM
- TGI (RXF 393 renal): 14.3 µM
- GI50 (SF-295 CNS): 2.74 µM
- TGI (SF-295 CNS): 13.5 µM
- GI50 (UACC-257 melanoma): 3.78 µM
- TGI (UACC-257 melanoma): > 100 µM
- GI50 (OVCAR-8 ovarian): 4.31 µM
- TGI (OVCAR-8 ovarian): > 100 µM
- GI50 (OVCAR-3 ovarian): 2.76 µM
- TGI (OVCAR-3 ovarian): > 100 µM
- GI50 (SW-620 colon): 3.74 µM
- TGI (SW-620 colon): > 100 µM
- GI50 (UO-31 renal): 3.18 µM
- TGI (UO-31 renal): > 100 µM
- GI50 (SF-539 CNS): 3.28 µM
- TGI (SF-539 CNS): 12.8 µM
- GI50 (NCI-H226 lung): 3.73 µM
- TGI (NCI-H226 lung): > 100 µM
- GI50 (M14 melanoma): 2.97 µM
- TGI (M14 melanoma): > 100 µM
- GI50 (NCI-H23 lung): 3.28 µM
- TGI (NCI-H23 lung): 48.9 µM
- GI50 (HS 578T breast): 3.51 µM
- TGI (HS 578T breast): 31.1 µM
- GI50 (TK-10 renal): 6.25 µM
- TGI (TK-10 renal): 40.3 µM
- GI50 (MCF7 breast): 3.37 µM
- TGI (MCF7 breast): > 100 µM
- GI50 (HOP-62 NSCLC): 5.76 µM
- TGI (HOP-62 NSCLC): 35.2 µM
- GI50 (SK-MEL-28 melanoma): 2.97 µM
- TGI (SK-MEL-28 melanoma): 25.8 µM
- GI50 (SNB-75 CNS): 2.27 µM
- TGI (SNB-75 CNS): 19.9 µM
- GI50 (A498 renal): 3.59 µM
- TGI (A498 renal): 18.2 µM
- GI50 (PC-3 prostate): 2.83 µM
- TGI (PC-3 prostate): > 100 µM
- GI50 (NCI-H460 lung): 3.07 µM
- TGI (NCI-H460 lung): > 100 µM
- GI50 (OVCAR-4 ovarian): 4.39 µM
- TGI (OVCAR-4 ovarian): > 100 µM
- GI50 (MALME-3M melanoma): 3.11 µM
- TGI (MALME-3M melanoma): > 100 µM
- GI50 (SF-268 CNS): 3.51 µM
- TGI (SF-268 CNS): > 100 µM
- GI50 (HOP-92 NSCLC): 3.48 µM
- TGI (HOP-92 NSCLC): 17.5 µM
- GI50 (HCT-116 colon): 3.69 µM
- TGI (HCT-116 colon): > 100 µM
- GI50 (CCRF-CEM leukemia): 3.54 µM
- TGI (CCRF-CEM leukemia): > 100 µM
- GI50 (SK-OV-3 ovarian): 8.74 µM
- TGI (SK-OV-3 ovarian): 60.7 µM
- GI50 (RPMI-8226 leukemia): 3.51 µM
- TGI (RPMI-8226 leukemia): > 100 µM
- GI50 (NCI/ADR-RES ovarian): 3.45 µM
- TGI (NCI/ADR-RES ovarian): > 100 µM
- GI50 (COLO 205 colon): 4.32 µM
- TGI (COLO 205 colon): > 100 µM
- GI50 (HCC-2998 colon): 3.37 µM
- TGI (HCC-2998 colon): > 100 µM
- GI50 (CAKI-1 renal): 3.31 µM
- TGI (CAKI-1 renal): > 100 µM
- GI50 (SN12C renal): 3.18 µM
- TGI (SN12C renal): > 100 µM
- GI50 (SK-MEL-2 melanoma): 2.07 µM
- TGI (SK-MEL-2 melanoma): 4.8 µM
- GI50 (HT29 colon): 3.34 µM
- TGI (HT29 colon): > 100 µM
